The compounds below were run against Recombinant human JAK3 enzyme (JAK3 kinase region; Ala795-Ser1124) (Homo sapiens, UniProt P52333) (assay: JAK3 Kinase Assay (Kinase-Glo luminescent, ATP consumption)). Details: read-out: Inhibition rate (%) of JAK3 kinase activity.
Recombinant human JAK3 enzyme (JAK3 kinase region; Ala795-Ser1124), sequence (P52333 795-1124): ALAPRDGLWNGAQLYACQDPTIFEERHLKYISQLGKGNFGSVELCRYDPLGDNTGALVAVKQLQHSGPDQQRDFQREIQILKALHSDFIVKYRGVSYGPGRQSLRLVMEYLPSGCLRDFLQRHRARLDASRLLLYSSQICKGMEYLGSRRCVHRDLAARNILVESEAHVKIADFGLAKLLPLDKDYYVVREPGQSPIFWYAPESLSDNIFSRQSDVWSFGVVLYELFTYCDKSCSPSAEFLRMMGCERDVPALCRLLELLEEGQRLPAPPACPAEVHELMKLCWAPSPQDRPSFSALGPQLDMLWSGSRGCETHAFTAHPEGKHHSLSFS

Row | inhibition at 0.1 µM | Compound
1 | 54% | CC(C)S(=O)(=O)Nc1cccc(Nc2cc(NCc3cc(F)cc(F)c3)c(C(N)=O)cn2)c1 [Example 165, 4-[(3,5-difluorobenzyl)amino]-6-({3-[(propan-2-ylsulfonyl)amino]phenyl}amino)pyridine-3-carboxyamide]
2 | 59% | CC(C)S(=O)(=O)N1CCN(c2ccc(Nc3cc(NCc4c(F)cccc4F)c(C(N)=O)cn3)cc2)CC1 [Example 172, 4-[(2,6-difluorobenzyl)amino]-6-({4-[4-(propan-2-ylsulfonyl)piperazin-1-yl]phenyl}amino) pyridine-3-carboxyamide]
3 | 86% | NC(=O)c1cnc(Nc2ccc(N3CCC(C(=O)NCCO)CC3)cc2)cc1NCc1ccccc1 [Example 176, 4-(benzylamino)-6-[(4-{4-[(2-hydroxyethyl)carbamoyl]piperidino}phenyl)amino]pyridine-3-carboxyamide]
4 | 84% | NC(=O)c1cnc(Nc2ccc(N3CCC(C(=O)N(CCO)CCO)CC3)cc2)cc1NCc1ccccc1 [Example 177, 4-(benzylamino)-6-[(4-{4-[bis(2-hydroxyethyl)carbamoyl]piperidino}phenyl)amino]pyridine-3-carboxyamide]
5 | 90% | NC(=O)c1cnc(Nc2ccc(N3CCC(CCO)CC3)cc2)cc1NCc1cccc(F)c1F [Example 178, 4-[(2,3-difluorobenzyl)amino]-6-({4-{4-(2-hydroxyethyl)piperidino]phenyl}amino)pyridine-3-carboxyamide]
6 | 78% | NC(=O)c1cnc(Nc2ccc(N3CCC(CCO)CC3)cc2)cc1NCc1cc(F)cc(F)c1 [Example 179]
7 | 63% | NC(=O)c1cnc(Nc2ccc(N3CCC(CCO)CC3)cc2)cc1NCc1cccc([N+](=O)[O-])c1 [Example 180, 6-({4-[4-(2-hydroxyethyl)piperidino]phenyl}amino)-4-[(3-nitrobenzyl)amino]pyridine-3-carboxyamide]
8 | 87% | Cc1ccccc1CNc1cc(Nc2ccc(N3CCC(O)CC3)cc2)ncc1C(N)=O [Example 185, 4-[(2-methylbenzyl)amino]-6-{[4-(4-hydroxypiperidino)phenyl]amino}pyridine-3-carboxyamide]
9 | 93% | NC(=O)c1cnc(Nc2ccc(N3CCC(O)CC3)cc2)cc1NCc1ccccc1Cl [Example 186, 4-[(2-chlorobenzyl)amino]-6-{[4-(4-hydroxypiperidino)phenyl]amino}pyridine-3-carboxyamide]
10 | 85% | NC(=O)c1cnc(Nc2ccc(N3CCC(O)CC3)cc2)cc1NCc1cccc(F)c1F [Example 187, 4-[(2,3-difluorobenzyl)amino]-6-{[4-(4-hydroxypiperidino)phenyl]amino}pyridine-3-carboxyamide]
11 | 89% | NC(=O)c1cnc(Nc2ccc(N3CCC(O)CC3)cc2)cc1NCc1cc(F)ccc1F [Example 188, 4-[(2,5-difluorobenzyl)amino]-6-[(4-(4-hydroxypiperidino)phenyl]amino}pyridine-3-carboxyamide]
12 | 98% | CCN(CC)CC(=O)N1CCN(c2ccc(Nc3cc(NCc4cccc(F)c4F)c(C(N)=O)cn3)cc2)CC1 [Example 205, 6-({4-[4-(N,N-diethylglycyl)piperazin-1-yl]phenyl}amino}-4-[(2,3-difluorobenzyl)amino]pyridine-3-carboxyamide]
13 | 65% | NC(=O)c1cnc(Nc2ccc(N3CCNCC3)cc2)cc1NCc1ccccc1 [Example 219]
14 | 78% | NC(=O)c1cnc(Nc2ccc(N3CCNCC3)cc2)cc1NCc1cc(F)cc(F)c1 [Example 221, 4-[(3,5-difluorobenzyl)amino]-6-{[4-(piperazin-1-yl)phenyl]amino}pyridine-3-carboxyamide]
15 | 78% | NC(=O)c1cnc(Nc2ccc(N3CCNCC3)cc2)cc1NCc1cc(F)ccc1F [Example 222, 4-[(2,5-difluorobenzyl)amino]-6-{[4-(piperazin-1-yl)phenyl]amino}pyridine-3-carboxyamide]
16 | 81% | NC(=O)c1cnc(Nc2ccc(N3CCNCC3)cc2)cc1NCc1c(F)cccc1F [Example 223, 4-[(2,6-difluorobenzyl)amino]-6-{[4-(piperazin-1-yl)phenyl]amino}pyridine-3-carboxyamide]
17 | 68% | NC(=O)c1cnc(Nc2ccc(N3CCNCC3)cc2)cc1NCc1cccc([N+](=O)[O-])c1 [Example 224, 4-[(3-nitrobenzyl)amino]-6-{[4-(piperazin-1-yl)phenyl]amino}pyridine-3-carboxyamide]
18 | 74% | NC(=O)c1cnc(Nc2cccc(N3CCNCC3)c2)cc1NCc1cc(F)cc(F)c1 [Example 225, 4-[(3,5-difluorobenzyl)amino]-6-{[3-(piperazin-1-yl)phenyl]amino}pyridine-3-carboxyamide]
19 | 74% | COCCNc1ccc(Nc2cc(NCc3cc(F)cc(F)c3)c(C(N)=O)cn2)cc1 [Example 233, 4-[(3,5-difluorobenzyl)amino]-6-({4-[(2-methoxyethyl)amino]phenyl}amino)pyridine-3-carboxyamide]
20 | 72% | NC(=O)c1cnc(Nc2ccc(NCCO)cc2)cc1NCc1cc(F)cc(F)c1 [Example 234, 4-[(3,5-difluorobenzyl)amino]-6-({4-[(2-hydroxyethyl)amino]phenyl}amino)pyridine-3-carboxyamide]
21 | 83% | CCN(CC)CCN1CCN(c2ccc(Nc3cc(NCc4ccccc4)c(C(N)=O)cn3)cc2)CC1 [Example 236, 4-(benzylamino)-6-[(4-{4-[2-(diethylamino)ethyl]piperazin-1-yl}phenyl)amino]pyridine-3-carboxyamide]
22 | 78% | CCN(CC)CCN1CCN(c2ccc(Nc3cc(NCc4cccc(F)c4F)c(C(N)=O)cn3)cc2)CC1 [Example 237, 6-[(4-{4-[2-(diethylamino)ethyl]piperazin-1-yl}phenyl)amino]-4-[(2,3-difluorobenzyl)amino]pyridine-3-carboxyamide]
23 | 100% | CCN(CC)CCN1CCN(c2ccc(Nc3cc(NCc4cc(F)cc(F)c4)c(C(N)=O)cn3)cc2)CC1 [Example 238, 6-[(4-{4-[2-(diethylamino)ethyl]piperazin-1-yl}phenyl)amino]-4-[(3,5-difluorobenzyl)amino]pyridine-3-carboxyamide]
24 | 57% | CCN(CC)CCN1CCN(c2cccc(Nc3cc(NCc4cc(F)cc(F)c4)c(C(N)=O)cn3)c2)CC1 [Example 239, 6-[(3-{4-[2-(diethylamino)ethyl]piperazin-1-yl}phenyl)amino]-4-[(3,5-difluorobenzyl)amino]pyridine-3-carboxyamide]
25 | 85% | N#CCCN1CCN(c2ccc(Nc3cc(NCc4cc(F)cc(F)c4)c(C(N)=O)cn3)cc2)CC1 [Example 240, 6-({4-[4-(2-cyanoethyl)piperazin-1-yl]phenyl}amino)-4-[(3,5-difluorobenzyl)amino]pyridine-3-carboxyamide]

Same assay, conditions: test compound at 0.1 μM

Row | Compound | Inhibition rate (%) of JAK3 kinase activity
26 | CC(C)S(=O)(=O)N1CCN(c2cccc(Nc3cc(NCc4cc(F)cc(F)c4)c(C(N)=O)cn3)c2)CC1 [Example 174, 4-[(3,5-difluorobenzyl)amino]-6-({3-[4-(propan-2-ylsulfonyl)piperazin-1-yl]phenyl}amino) pyridine-3-carboxyamide] | 58%
27 | CS(=O)(=O)NCCCc1ccc(Nc2cc(NCc3cc(F)cc(F)c3)c(C(N)=O)cn2)cc1 [Example 202] | 88%
